Source: PubChem BioAssay (NCI)
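Assay format: 96-well plates, 48-hour exposure. TGI marks complete inhibition of growth.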

Columns and labels:
Test in all cases: NCI-60 cell line screen, 48 h
MDA-N = test system: MDA-N
HCT-15 colon = test system: HCT-15 colon
SF-295 CNS = test system: SF-295 CNS
SK-OV-3 ovarian = test system: SK-OV-3 ovarian
OVCAR-8 ovarian = test system: OVCAR-8 ovarian
UACC-257 melanoma = test system: UACC-257 melanoma
A498 renal = test system: A498 renal
RXF 393 renal = test system: RXF 393 renal
SK-MEL-5 melanoma = test system: SK-MEL-5 melanoma
MCF7 breast = test system: MCF7 breast
T-47D breast = test system: T-47D breast
OVCAR-4 ovarian = test system: OVCAR-4 ovarian
SNB-75 CNS = test system: SNB-75 CNS
HOP-92 NSCLC = test system: HOP-92 NSCLC
SK-MEL-28 melanoma = test system: SK-MEL-28 melanoma
SW-620 colon = test system: SW-620 colon
SN12C renal = test system: SN12C renal
TK-10 renal = test system: TK-10 renal
SR leukemia = test system: SR leukemia
MOLT-4 leukemia = test system: MOLT-4 leukemia
NCI-H522 lung = test system: NCI-H522 lung
NCI-H226 lung = test system: NCI-H226 lung
COLO 205 colon = test system: COLO 205 colon
CCRF-CEM leukemia = test system: CCRF-CEM leukemia
ACHN renal = test system: ACHN renal
PC-3 prostate = test system: PC-3 prostate
MDA-MB-435 = test system: MDA-MB-435
EKVX NSCLC = test system: EKVX NSCLC
MDA-MB-231 breast = test system: MDA-MB-231 breast
OVCAR-5 ovarian = test system: OVCAR-5 ovarian
SK-MEL-2 melanoma = test system: SK-MEL-2 melanoma
M14 melanoma = test system: M14 melanoma
NCI/ADR-RES ovarian = test system: NCI/ADR-RES ovarian
A549 NSCLC = test system: A549 NSCLC
HOP-62 NSCLC = test system: HOP-62 NSCLC
NCI-H460 lung = test system: NCI-H460 lung
HL-60(TB) leukemia = test system: HL-60(TB) leukemia
786-0 renal = test system: 786-0 renal
U251 CNS = test system: U251 CNS
NCI-H23 lung = test system: NCI-H23 lung
LOX IMVI melanoma = test system: LOX IMVI melanoma
DU-145 prostate = test system: DU-145 prostate
CAKI-1 renal = test system: CAKI-1 renal
UACC-62 melanoma = test system: UACC-62 melanoma
HCT-116 colon = test system: HCT-116 colon
SNB-19 CNS = test system: SNB-19 CNS
IGROV1 ovarian = test system: IGROV1 ovarian
BT-549 breast = test system: BT-549 breast
UO-31 renal = test system: UO-31 renal
HT29 colon = test system: HT29 colon
K-562 leukemia = test system: K-562 leukemia
SF-268 CNS = test system: SF-268 CNS
KM12 colon = test system: KM12 colon
OVCAR-3 ovarian = test system: OVCAR-3 ovarian
HCC-2998 colon = test system: HCC-2998 colon
RPMI-8226 leukemia = test system: RPMI-8226 leukemia
HS 578T breast = test system: HS 578T breast
MALME-3M melanoma = test system: MALME-3M melanoma
SF-539 CNS = test system: SF-539 CNS

Measured: TGI

O=C1OC(c2ccccc2)=N/C1=C\c1ccc(Cl)cc1
> 100 µM: MDA-N | HCT-15 colon | SF-295 CNS | SK-OV-3 ovarian | OVCAR-8 ovarian | UACC-257 melanoma | A498 renal | RXF 393 renal | SK-MEL-5 melanoma | MCF7 breast | T-47D breast | OVCAR-4 ovarian | SNB-75 CNS | HOP-92 NSCLC | SK-MEL-28 melanoma | SW-620 colon | SN12C renal | TK-10 renal | SR leukemia | MOLT-4 leukemia | NCI-H522 lung | NCI-H226 lung | COLO 205 colon | CCRF-CEM leukemia | ACHN renal | PC-3 prostate | MDA-MB-435 | EKVX NSCLC | MDA-MB-231 breast | OVCAR-5 ovarian | SK-MEL-2 melanoma | M14 melanoma | NCI/ADR-RES ovarian | A549 NSCLC | HOP-62 NSCLC | NCI-H460 lung | HL-60(TB) leukemia | 786-0 renal | U251 CNS | NCI-H23 lung | LOX IMVI melanoma | DU-145 prostate | CAKI-1 renal | UACC-62 melanoma | HCT-116 colon | SNB-19 CNS | IGROV1 ovarian | BT-549 breast | UO-31 renal | HT29 colon | K-562 leukemia | SF-268 CNS | KM12 colon | OVCAR-3 ovarian | HCC-2998 colon | RPMI-8226 leukemia | HS 578T breast

Cc1cc(C)c2c(c1)CC1(Cc3c(ccc(C)c3C)C1=O)C2=O (stereo not drawn)
> 100 µM: MDA-N | HCT-15 colon | SF-295 CNS | SK-OV-3 ovarian | OVCAR-8 ovarian | UACC-257 melanoma | A498 renal | RXF 393 renal | SK-MEL-5 melanoma | MCF7 breast | T-47D breast | OVCAR-4 ovarian | SNB-75 CNS | HOP-92 NSCLC | SK-MEL-28 melanoma | MALME-3M melanoma | SW-620 colon | SN12C renal | TK-10 renal | SR leukemia | MOLT-4 leukemia | NCI-H522 lung | NCI-H226 lung | CCRF-CEM leukemia | ACHN renal | PC-3 prostate | MDA-MB-435 | EKVX NSCLC | MDA-MB-231 breast | OVCAR-5 ovarian | SK-MEL-2 melanoma | M14 melanoma | NCI/ADR-RES ovarian | A549 NSCLC | NCI-H460 lung | SF-539 CNS | HL-60(TB) leukemia | 786-0 renal | U251 CNS | NCI-H23 lung | DU-145 prostate | CAKI-1 renal | UACC-62 melanoma | HCT-116 colon | SNB-19 CNS | IGROV1 ovarian | BT-549 breast | UO-31 renal | HT29 colon | K-562 leukemia | SF-268 CNS | KM12 colon | OVCAR-3 ovarian | HCC-2998 colon | RPMI-8226 leukemia | HS 578T breast
